Experimental data taken from patent publication US20250313535A1, “ALPHA 4 BETA 7 INTEGRIN MODULATORS AND USES THEREOF” (DICE MOLECULES SV, INC., priority 2022, published 2025).
Read-outs that look alike come from different tables or passages of the source.

Assays:
Assay type in all cases: cell-based
α4β7 integrin [1] = biological target: T1, α4β7 integrin (Homo sapiens (Human), UniProt P13612+P26010); experiment: Integrin Adhesion Assay: Protocol 1 (MAdCAM-coated plate, RPMI-8866 cells, CellTiter GLO readout)
Procedure, shortened: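 RPMI-8866 cells (2×10^6 per mL) added with compounds (1% DMSO) to MAdCAM-coated wells blocked in HEPES/NaCl buffer with 1 mM MnCl2, 0.1 mM CaCl2, 1% BSA; 1 h at 37° C, 5% CO2. After four washes, bound cells read by CellTiter GLO luminescence; % inhibition vs DMSO and control wells, 4-parameter fit.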

α4β7 integrin [2] = biological target: T1, α4β7 integrin; experiment: Integrin Adhesion Assay: Protocol 4 (MAdCAM-coated plate, RPMI-8866 cells with stable LOF mutation of the ITGB1 gene)
Procedure, shortened: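 RPMI-8866 cells with CRISPR/Cas9 knockout of ITGB1 (2×10^6/mL) were added to MAdCAM-coated wells with compound (1% DMSO) in HEPES/NaCl buffer with 1 mM MnCl2, 0.1 mM CaCl2 and 1% BSA, then incubated 1 h at 37 °C. After four washes, adherent cells were quantified by CellTiter-Glo luminescence. Percent inhibition versus DMSO and control compound was fitted to 4-parameter curves.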

α4β1 integrin = α4β1 integrin (Homo sapiens (Human), UniProt P05556+P13612); experiment: Integrin Adhesion Assay: Protocol 5 (VCAM-coated plate, RPMI-8866 cells with stable LOF mutation of the ITGB7 gene)
Procedure, shortened: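 RPMI-8866 B cells with CRISPR/Cas9 ITGB7 knockout (clonal, verified by flow cytometry) adhered to VCAM-coated wells for 1 h at 37° C in HEPES/NaCl buffer with 1 mM MnCl2, 0.1 mM CaCl2, 1% BSA, 1% DMSO. Bound cells quantified by CellTiter-Glo luminescence after washing; % inhibition versus DMSO and control, 4-parameter fit.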

[3] = RPMI-8866 cells with stable LOF mutation of the ITGB1 gene, read-out: Mean IC50 α4β7 KO^a
[4] = RPMI-8866 cells with stable LOF mutation of the ITGB7 gene, read-out: Mean IC50 α4β1 KO^b
[5] = Protocol 4, RPMI-8866 cells with LOF mutation of ITGB1, MAdCAM, read-out: Mean IC50 α4β7 KO
[6] = Protocol 5, RPMI-8866 cells with LOF mutation of ITGB7, VCAM, read-out: Mean IC50 α4β1 KO

T1 sequence (P13612 34-1032): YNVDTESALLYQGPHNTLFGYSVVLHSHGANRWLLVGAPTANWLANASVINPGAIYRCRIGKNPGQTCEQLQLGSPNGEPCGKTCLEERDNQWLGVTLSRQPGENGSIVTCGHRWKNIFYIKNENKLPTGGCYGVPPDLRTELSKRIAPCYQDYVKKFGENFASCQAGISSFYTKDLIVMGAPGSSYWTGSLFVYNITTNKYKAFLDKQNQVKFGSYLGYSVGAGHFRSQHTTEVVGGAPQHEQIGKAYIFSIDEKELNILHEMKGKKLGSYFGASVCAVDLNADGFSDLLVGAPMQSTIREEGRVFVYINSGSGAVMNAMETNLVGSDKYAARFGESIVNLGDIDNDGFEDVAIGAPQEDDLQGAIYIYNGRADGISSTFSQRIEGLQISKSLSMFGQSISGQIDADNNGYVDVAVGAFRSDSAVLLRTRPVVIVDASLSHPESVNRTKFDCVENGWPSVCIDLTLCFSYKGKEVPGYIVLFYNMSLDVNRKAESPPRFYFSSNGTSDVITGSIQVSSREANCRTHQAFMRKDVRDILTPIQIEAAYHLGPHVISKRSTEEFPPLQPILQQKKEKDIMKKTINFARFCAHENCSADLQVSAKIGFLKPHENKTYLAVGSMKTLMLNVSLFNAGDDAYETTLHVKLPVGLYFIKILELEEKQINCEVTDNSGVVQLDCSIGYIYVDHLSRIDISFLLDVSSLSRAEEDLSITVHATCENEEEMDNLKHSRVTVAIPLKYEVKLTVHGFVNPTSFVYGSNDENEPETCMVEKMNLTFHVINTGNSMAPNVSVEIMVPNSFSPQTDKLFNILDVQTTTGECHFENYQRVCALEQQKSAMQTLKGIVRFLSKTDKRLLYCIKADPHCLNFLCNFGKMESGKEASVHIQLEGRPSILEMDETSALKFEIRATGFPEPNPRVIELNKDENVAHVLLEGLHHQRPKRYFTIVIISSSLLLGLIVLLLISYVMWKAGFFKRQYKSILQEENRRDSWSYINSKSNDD
T1 sequence (P26010 20-798): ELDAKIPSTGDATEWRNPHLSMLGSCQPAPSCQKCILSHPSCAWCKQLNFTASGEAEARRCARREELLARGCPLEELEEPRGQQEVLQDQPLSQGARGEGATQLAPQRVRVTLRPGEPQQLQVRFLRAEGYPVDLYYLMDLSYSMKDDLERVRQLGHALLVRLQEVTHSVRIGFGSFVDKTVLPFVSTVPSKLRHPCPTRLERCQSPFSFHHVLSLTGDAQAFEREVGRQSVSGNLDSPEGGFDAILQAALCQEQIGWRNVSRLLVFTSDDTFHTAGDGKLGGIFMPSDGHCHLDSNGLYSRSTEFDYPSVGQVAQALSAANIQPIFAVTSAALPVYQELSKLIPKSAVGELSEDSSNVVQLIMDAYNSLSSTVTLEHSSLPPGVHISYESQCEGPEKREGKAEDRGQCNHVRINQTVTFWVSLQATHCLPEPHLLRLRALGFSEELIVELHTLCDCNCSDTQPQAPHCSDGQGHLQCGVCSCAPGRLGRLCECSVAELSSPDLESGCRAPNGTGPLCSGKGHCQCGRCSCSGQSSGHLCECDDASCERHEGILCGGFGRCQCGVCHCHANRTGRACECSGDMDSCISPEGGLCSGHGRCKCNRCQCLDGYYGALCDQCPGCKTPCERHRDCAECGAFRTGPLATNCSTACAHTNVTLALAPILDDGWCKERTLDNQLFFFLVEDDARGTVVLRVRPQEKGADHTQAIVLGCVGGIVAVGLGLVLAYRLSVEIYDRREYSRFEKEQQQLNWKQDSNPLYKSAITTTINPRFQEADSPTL
α4β1 integrin, sequence (P13612 34-1032): as the sequence (P13612 34-1032) above
α4β1 integrin, sequence (P05556 21-798): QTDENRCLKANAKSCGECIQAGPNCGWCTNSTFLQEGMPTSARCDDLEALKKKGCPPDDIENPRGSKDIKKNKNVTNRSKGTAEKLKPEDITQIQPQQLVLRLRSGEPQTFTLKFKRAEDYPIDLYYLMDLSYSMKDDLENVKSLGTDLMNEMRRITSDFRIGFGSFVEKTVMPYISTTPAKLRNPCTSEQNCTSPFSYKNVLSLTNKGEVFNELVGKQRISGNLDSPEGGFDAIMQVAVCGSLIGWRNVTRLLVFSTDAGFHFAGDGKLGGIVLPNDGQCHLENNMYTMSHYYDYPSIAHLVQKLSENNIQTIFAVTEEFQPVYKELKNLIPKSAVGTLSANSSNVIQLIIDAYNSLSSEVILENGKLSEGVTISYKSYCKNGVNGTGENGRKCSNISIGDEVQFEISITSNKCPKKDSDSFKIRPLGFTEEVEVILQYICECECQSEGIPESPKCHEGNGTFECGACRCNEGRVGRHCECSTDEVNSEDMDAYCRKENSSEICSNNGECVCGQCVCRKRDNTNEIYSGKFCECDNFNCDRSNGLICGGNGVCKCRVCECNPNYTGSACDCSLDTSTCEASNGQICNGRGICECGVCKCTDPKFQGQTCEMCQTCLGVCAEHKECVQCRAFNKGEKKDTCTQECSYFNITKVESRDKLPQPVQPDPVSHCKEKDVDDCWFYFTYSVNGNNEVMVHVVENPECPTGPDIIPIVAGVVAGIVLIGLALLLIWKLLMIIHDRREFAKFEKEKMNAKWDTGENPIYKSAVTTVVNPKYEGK

Row | SMILES | IC50 (α4β7 integrin [1]) | IC50 (α4β7 integrin [2]; [3]) | IC50 (α4β1 integrin; [4]) | IC50 (α4β7 integrin [1]; protocol not given) | IC50 (α4β7 integrin [2]; [5]) | IC50 (α4β1 integrin; [6])
1 | Cc1cccc(F)c1C(=O)N[C@@H](Cc1cccc2c(-c3c(C(F)(F)F)c4cc(N(C)C)ccc4n(C)c3=O)cccc12)C(=O)O [Compound 449] | 100 to 1000 nM | 100 to 1000 nM | > 1000 nM | – | – | –
2 | Cn1c(=O)c(-c2cccc3c(C[C@H](NC(=O)C4(C(F)(F)F)CCN(CC(F)(F)F)CC4)C(=O)O)cccc23)c(C(F)(F)F)c2ccccc21 [Compound 352] | 10 to 100 nM | 10 to 100 nM | 100 to 1000 nM | – | – | –
3 | Cn1c(=O)c(-c2cccc3c(C[C@H](NC(=O)c4c(F)cc(N5CCCCC5)cc4F)C(=O)O)cccc23)c(C(F)(F)F)c2ccccc21 [Compound 354] | 100 to 1000 nM | 100 to 1000 nM | > 1000 nM | – | – | –
4 | CN(C)Cc1cccc2c(-c3cccc4c(C[C@H](NC(=O)c5c(F)cc(N6CCOC[C@@H]6C(F)(F)F)cc5CN5CCCC5)C(=O)O)cccc34)nccc12 [Compound 433] | < 10 nM | < 10 nM | > 1000 nM | – | – | –
5 | O=C(N[C@@H](Cc1cccc2c(-n3cccc(C(F)(F)F)c3=O)cccc12)C(=O)O)c1c(F)cccc1F [Compound 1054] | – | – | – | 10 to 100 nM | 10 to 100 nM | > 1000 nM
6 | Cc1cccc(F)c1C(=O)N[C@@H](Cc1cccc2c(-c3c(C(F)(F)F)c4ccccc4n(C)c3=O)cccc12)C(=O)O [Compound 355] | 10 to 100 nM | 10 to 100 nM | > 1000 nM | – | – | –
7 | CN(C)c1ccc2c(c1)c(C(F)(F)F)c(-c1cccc3c(C[C@H](NC(=O)[C@]4(C)CC[C@@H](N5CCC(F)(F)CC5)CC4)C(=O)O)cccc13)c(=O)n2C [Compound 411] | 100 to 1000 nM | 100 to 1000 nM | > 1000 nM | – | – | –
8 | Cc1cccnc1-c1ccc(F)c(C(=O)N[C@@H](Cc2cccc3c(-c4c(C(F)(F)F)c5ccccc5n(C)c4=O)cccc23)C(=O)O)c1F [Compound 316] | 100 to 1000 nM | 10 to 100 nM | > 1000 nM | – | – | –
9 | CN(C)Cc1cccc2c(-c3cccc4c(C[C@H](NC(=O)[C@]5(C)CC[C@H](N6CCOC[C@@H]6C(F)(F)F)CC5)C(=O)O)cccc34)nccc12 (single isomer, unassigned) [Compound 419] | 10 to 100 nM | 10 to 100 nM | > 1000 nM | – | – | –
10 | Cn1c(=O)c(-c2cccc3c(C[C@H](NC(=O)c4c(F)cccc4CN4CCC(F)(F)C4)C(=O)O)cccc23)c(C(F)(F)F)c2ccccc21 [Compound 456] | 10 to 100 nM | 10 to 100 nM | > 1000 nM | – | – | –
11 | Cn1c(=O)c(-c2cccc3c(C[C@H](NC(=O)c4c(F)cc(C5CCOCC5)cc4F)C(=O)O)cccc23)c(C(F)(F)F)c2ccccc21 [Compound 373] | 100 to 1000 nM | 100 to 1000 nM | > 1000 nM | – | – | –
12 | CN(C)Cc1ccc2c(c1)c(C(F)(F)F)c(-c1cccc3c(C[C@H](NC(=O)c4c(F)cccc4F)C(=O)O)cccc13)c(=O)n2C [Compound 697] | – | – | – | < 10 nM | < 10 nM | 100 to 1000 nM
13 | CN(C)c1ccc2c(c1)c(C(F)(F)F)c(-c1cccc3c(C[C@H](NC(=O)C4(C(F)(F)F)CCN(CC(F)(F)F)CC4)C(=O)O)cccc13)c(=O)n2C [Compound 454] | 10 to 100 nM | 10 to 100 nM | > 1000 nM | – | – | –
14 | COc1ccc(CN(C)C)c(OC)c1-c1cccc2c(C[C@H](NC(=O)c3c(C)cccc3F)C(=O)O)cccc12 [Compound 450] | < 10 nM | < 10 nM | 100 to 1000 nM | – | – | –
15 | Cc1c(F)ccc(F)c1C(=O)N[C@@H](Cc1cccc2c(-c3c(C(F)(F)F)c4ccccc4n(C)c3=O)cccc12)C(=O)O [Compound 444] | 10 to 100 nM | 10 to 100 nM | > 1000 nM | – | – | –
16 | Cn1c(=O)c(-c2cccc3c(C[C@H](NC(=O)[C@]4(C(F)(F)F)CC[C@@H](N5CCOC[C@@H]5C(F)(F)F)CC4)C(=O)O)cccc23)c(C(F)(F)F)c2ccccc21 [Compound 422] | 10 to 100 nM | 100 to 1000 nM | > 1000 nM | – | – | –

Row | SMILES | IC50 (α4β7 integrin [1]) | IC50 (α4β7 integrin [2]; [3]) | IC50 (α4β1 integrin; [4]) | IC50 (α4β7 integrin [1]; protocol not given) | IC50 (α4β7 integrin [2]; [5]) | IC50 (α4β1 integrin; [6])
17 | CN(C)c1ccc2c(C(F)(F)F)c(-c3cccc4c(C[C@H](NC(=O)c5c(F)cccc5F)C(=O)O)cccc34)c(=O)n(C)c2c1 [Compound 719] | – | – | – | 100 to 1000 nM | > 1000 nM | > 1000 nM
18 | Cc1cccc(C)c1-c1ccc(F)c(C(=O)N[C@@H](Cc2cccc3c(-c4c(C(F)(F)F)c5ccccc5n(C)c4=O)cccc23)C(=O)O)c1F [Compound 307] | 100 to 1000 nM | 100 to 1000 nM | > 1000 nM | – | – | –
19 | CN(C)Cc1ccc2c(c1)c(C(F)(F)F)c(-c1cccc3c(C[C@H](NC(=O)c4c(F)cc(C(F)(F)F)cc4F)C(=O)O)cccc13)c(=O)n2C [Compound 699] | – | – | – | < 10 nM | 10 to 100 nM | 100 to 1000 nM
20 | Cc1cncc(C)c1-c1cc(F)c(C(=O)N[C@@H](Cc2cccc3c(-c4c(C(F)(F)F)c5ccccc5n(C)c4=O)cccc23)C(=O)O)c(F)c1 [Compound 305] | 100 to 1000 nM | > 1000 nM | – | – | – | –
21 | Cn1c(=O)c(-c2cccc3c(C[C@H](NC(=O)[C@]4(C)CC[C@H](N5CC(F)(F)C5)CC4)C(=O)O)cccc23)c(C(F)(F)F)c2ccccc21 [Compound 400] | 100 to 1000 nM | 100 to 1000 nM | – | – | – | –
22 | CC[C@@](Cc1cccs1)(C(=O)N[C@@H](Cc1cccc2c(-c3c(C(F)(F)F)ccn(C)c3=O)nccc12)C(=O)O)c1ccccc1 [Compound 291] | 100 to 1000 nM | 100 to 1000 nM | – | – | – | –
23 | Cn1c(=O)c(-c2cccc3c(C[C@H](NC(=O)c4c(F)cc([C@H]5C[C@@H](N(C)C)C5)cc4F)C(=O)O)cccc23)c(C(F)(F)F)c2ccccc21 [Compound 416] | 100 to 1000 nM | 100 to 1000 nM | – | – | – | –
24 | Cn1c(=O)c(-c2cccc3c(C[C@H](NC(=O)[C@]4(C)CC[C@@H](N5CCS(=O)(=O)CC5)CC4)C(=O)O)cccc23)c(C(F)(F)F)c2ccccc21 [Compound 403] | 10 to 100 nM | 10 to 100 nM | > 1000 nM | – | – | –
25 | CN(C)c1ccc2c(c1)c(C(F)(F)F)c(-c1cccc3c(C[C@H](NC(=O)[C@]4(C)CC[C@H](N5CCOC[C@@H]5C(F)(F)F)CC4)C(=O)O)cccc13)c(=O)n2C (single isomer, unassigned) [Compound 410] | 100 to 1000 nM | 100 to 1000 nM | – | – | – | –
26 | CN1CCC(c2cc(F)c(C(=O)N[C@@H](Cc3cccc4c(-c5c(C(F)(F)F)c6ccccc6n(C)c5=O)cccc34)C(=O)O)c(F)c2)C1 (stereo partly shown) [Compound 372] | 100 to 1000 nM | 100 to 1000 nM | – | – | – | –
27 | Cn1c(=O)c(-c2cccc3c(C[C@H](NC(=O)c4c(F)ccc(-c5ccncc5)c4F)C(=O)O)cccc23)c(C(F)(F)F)c2ccccc21 [Compound 311] | 100 to 1000 nM | 100 to 1000 nM | – | – | – | –
28 | COc1ccc(CN(C)C)c(OC)c1-c1cccc2c(C[C@H](NC(=O)c3c(F)cccc3CN3CCC(F)(F)CC3)C(=O)O)cccc12 [Compound 452] | < 10 nM | < 10 nM | 100 to 1000 nM | – | – | –
29 | CCOCc1cc(OC)c(-c2cccc3c(C[C@H](NC(=O)c4c(C)cccc4F)C(=O)O)cccc23)c(OC)c1 [Compound 448] | < 10 nM | < 10 nM | 100 to 1000 nM | – | – | –
30 | Cn1c(=O)c(-c2cccc3c(C[C@H](NC(=O)[C@]4(C)CC[C@@H](N5CC(F)(F)C5)CC4)C(=O)O)cccc23)c(C(F)(F)F)c2ccccc21 [Compound 399] | 100 to 1000 nM | 10 to 100 nM | – | – | – | –
31 | Cc1cccc(F)c1C(=O)N[C@@H](Cc1cccc2c(-c3c(C(F)(F)F)ccn(C)c3=O)cccc12)C(=O)O [Compound 460] | 10 to 100 nM | 10 to 100 nM | > 1000 nM | – | – | –
